For 16 molecules, EC90 results are on record in patent US8901139B2, “Tricyclic indole derivatives and methods of use thereof” (Merck Sharp & Dohme Corp., priority 2008, dated 2014).

For the experiment, the system named is HCV replicon cells (replicon RNA level). Nature of the experiment: Cell-Based HCV Replicon Assay. The settings on record: Hepatitis C virus, 72 h; replicon RNA by real time PCR (Taqman), day 3; ΔCT=3.2 over baseline. As to the method:
To measure cell-based anti-HCV activity of the a Compound of Formula (I), replicon cells were seeded at 5000 cells/well in 96-well collagen I-coated Nune plates in the presence of the Compound of Formula (I). Various concentrations of a Compound of Formula (I), typically in 10 serial 2-fold dilutions, were added to the assay mixture, with the starting concentration ranging from 250 μM to 1 μM. The final concentration of DMSO was 0.5%, fetal bovine serum was 5%, in the assay media. Cells were harvested on day 3 by the addition of 1× cell lysis buffer (Ambion cat #8721). The replicon RNA level was measured using real time PCR (Taqman assay). The amplicon was located in 5B. The PCR primers were: 5B.2F, ATGGACAGGCGCCCTGA (SEQ. ID. NO. 2); 5B.2R, […] (SEQ. ID. NO. 3);the probe sequence was FAM-labeled CACGCCATGCGCTGCGG (SEQ. ID. NO. 4). GAPDH RNA was used as endogenous control and was amplified in the same reaction as NS5B (multiplex PCR) using primers and VIC-labeled probe recommended by the manufacturer (PE Applied Biosystem). The real-time RT-PCR reactions were run on ABI PRISM 7900HT Sequence Detection System using the following program: 48° C. for 30 minutes, 95° C. for 10 minutes, 40 cycles of 95° C. for 15 sec, 60° C. for 1 minute. The ΔCT values (CT5B-CTGAPDH) were plotted against the concentration of test compound and fitted to the sigmoid dose-response model using XLfit4 (MDL). EC50 was defined as the concentration of inhibitor necessary to achieve ΔCT=1 over the projected baseline; EC90 the concentration necessary to achieve ΔCT=3.2 over the baseline. Alternatively, to quantitate the absolute amount of replicon RNA, a standard curve was established by including serially diluted T7 transcripts of replicon RNA in the Taqman assay. All Taqman reagents were from PE Applied Biosystems. Such an assay procedure was described in detail in e.g. Malcolm et al., Antimicrobial Agents and Chemotherapy 50: 1013-1020 (2006).
HCV replicon assay data was calculated for selected compounds of the present invention using this method.
In general terms: Replicon systems follow genome replication, usually without infectious particles.
The EC90 is the concentration needed for an effect of 90%. Higher therefore signals a need for much substance. Consider `O=C(O)c1c(-c2ccc[nH]c2=O)c2c3c(c(F)cc2n1Cc1cc2cn[nH]c2cc1Cl)CCO3` [Compound 157], for which the EC90 was less than 100 nM.

With `Cc1cc2[nH]ncc2cc1Cn1c(C(=O)OCCN(C)C)c(-c2ccc[nH]c2=O)c2c3occc3c(F)cc21` [Compound 172], the EC90 was less than 100 nM.

`O=C(O)c1c(-c2ccc[nH]c2=O)c2c3occc3c(F)cc2n1Cc1cc2c(=O)[nH]cnc2cc1Cl` [Compound 164] had an EC90 of less than 100 nM.

In the case of `Cn1cnc2cc(Cl)c(Cn3c(C(=O)O)c(-c4ccc[nH]c4=O)c4c5occc5c(F)cc43)cc21` [Compound 162], the EC90 is less than 100 nM.

In turn, `CN(C)CCOC(=O)c1c(-c2ccc[nH]c2=O)c2c3occc3c(F)cc2n1Cc1cc(N)nc2ccccc12` [Compound 177] yielded an EC90 of less than 100 nM.

For `N#Cc1ccc(F)c(Cn2c(C(=O)O)c(-c3ccc[nH]c3=O)c3c4occc4c(F)cc32)c1` [Compound 129], the EC90 is less than 100 nM.

Take `O=C(O)c1c(-c2ccc[nH]c2=O)c2c3c(c(F)cc2n1Cc1cc2c(=O)[nH]c(=O)[nH]c2cc1F)CCO3` [Compound 165]: the EC90 is less than 100 nM.

For `O=C(O)c1c(-c2ccc[nH]c2=O)c2c3occc3c(F)cc2n1Cc1cc2cn[nH]c2cc1Cl` [Compound 150], the EC90 is less than 100 nM.

Turning to `Nc1ncnc2cc(F)c(Cn3c(C(=O)O)c(-c4ccc[nH]c4=O)c4c5occc5c(F)cc43)cc12` [Compound 161], the EC90 was less than 100 nM.

Take `C=CCNCCOC(=O)c1c(-c2ccc[nH]c2=O)c2c3occc3c(F)cc2n1Cc1cc2cn[nH]c2cc1CC=C` [Compound 188]: the EC90 was less than 100 nM.

For `CN(C)CCCOC(=O)c1c(-c2ccc[nH]c2=O)c2c3occc3c(F)cc2n1Cc1cc2c(=O)[nH]cnc2cc1F` [Compound 189], the EC90 is less than 100 nM.

On to `CN(C)CCOC(=O)c1c(-c2ccc[nH]c2=O)c2c3c(c(F)cc2n1Cc1cc2cn[nH]c2cc1F)CCO3` [Compound 174], for which the EC90 was less than 100 nM.

On to `CN(C)CCOC(=O)c1c(-c2ccc[nH]c2=O)c2c3occc3c(F)cc2n1Cc1cc2c(N)ncnc2cc1F` [Compound 185], for which the EC90 was less than 100 nM.

Regarding `O=C(O)c1c(-c2ccc[nH]c2=O)c2c3occc3c(F)cc2n1Cc1cc2cc[nH]c2cc1Br` [Compound 170], the EC90 is less than 100 nM.

`Cc1cc2[nH]ncc2cc1Cn1c(C(=O)O)c(-c2ccc[nH]c2=O)c2c3occc3c(F)cc21` [Compound 136] gave an EC90 of less than 100 nM.

Consider `O=Cc1ccc(F)c(Cn2c(C(=O)O)c(-c3ccc[nH]c3=O)c3c4occc4c(F)cc32)c1` [Compound 131], for which the EC90 is less than 100 nM.
